Measured values published in PubChem BioAssay AID330 (DTP/NCI, 2004).
Several values for one entry are separate records, joined by “and”; a condition that tells them apart may be missing. Identical values can stand only once. Toxic doses and inconclusive results are not listed. The calls were made as follows: active = survival T/C of 150% or more; inactive = T/C below 125% in these data.

Tested on: P388 leukemia ip, CD2F1 mice, survival T/C
Experiment: NCI In Vivo Anticancer Drug Screen. Data for tumor model P388 Leukemia (intraperitoneal) in CD2F1 (CDF1) mice
Conditions: endpoint: median survival time, higher = longer survival
Outline: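 Mice carrying the transplanted tumor received test compound or vehicle. Survival was recorded in each group, and the value is the treated-group measurement divided by that of the vehicle-treated control group.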

[1] = dose: 15.0 mg/kg/injection, schedule: Q01DX005 (ip), vehicle: saline with Tween-80
[2] = dose: 30.0 mg/kg/injection, schedule: Q01DX005 (ip), vehicle: saline with Tween-80
[3] = dose: 60.0 mg/kg/injection, schedule: Q01DX005 (ip), vehicle: saline with Tween-80
[4] = dose: 120.0 mg/kg/injection, schedule: Q01DX005 (ip), vehicle: saline with Tween-80
[5] = dose: 240.0 mg/kg/injection, schedule: Q01DX005 (ip), vehicle: saline with Tween-80
[6] = dose: 25.0 mg/kg/injection, schedule: Q04DX002 (ip), vehicle: saline with Tween-80
[7] = dose: 50.0 mg/kg/injection, schedule: Q04DX002 (ip), vehicle: saline with Tween-80
[8] = dose: 100.0 mg/kg/injection, schedule: Q04DX002 (ip), vehicle: saline with Tween-80
[9] = dose: 12.5 mg/kg/injection, schedule: Q01DX005 (ip), vehicle: Klucel (hydroxypropylcellulose) (HPC)
[10] = dose: 25.0 mg/kg/injection, schedule: Q01DX005 (ip), vehicle: Klucel (hydroxypropylcellulose) (HPC)
[11] = dose: 50.0 mg/kg/injection, schedule: Q01DX005 (ip), vehicle: Klucel (hydroxypropylcellulose) (HPC)
[12] = dose: 100.0 mg/kg/injection, schedule: Q01DX005 (ip), vehicle: Klucel (hydroxypropylcellulose) (HPC)
[13] = dose: 50.0 mg/kg/injection, schedule: Q01DX009 (ip), vehicle: saline with Tween-80
[14] = dose: 100.0 mg/kg/injection, schedule: Q01DX009 (ip), vehicle: saline with Tween-80
[15] = dose: 200.0 mg/kg/injection, schedule: Q01DX009 (ip), vehicle: saline with Tween-80
[16] = dose: 200.0 mg/kg/injection, schedule: Q01DX005 (ip), vehicle: Klucel (hydroxypropylcellulose) (HPC)

Measured: T/C

O=C1OC(c2ccccc2)N/C1=C\c1ccc(OCc2ccccc2)c(OCc2ccccc2)c1 (centres undefined)
inactive: dose: 100.0 mg/kg/injection, schedule: Q04DX003 (ip), vehicle: Klucel (hydroxypropylcellulose) (HPC) 94 % of control | dose: 200.0 mg/kg/injection, schedule: Q04DX003 (ip), vehicle: Klucel (hydroxypropylcellulose) (HPC) 87 % of control | dose: 400.0 mg/kg/injection, schedule: Q04DX003 (ip), vehicle: Klucel (hydroxypropylcellulose) (HPC) 90 % of control

Brc1cn2[n+](c1)[B-]n1cc(Br)c[n+]1[B-]2
inactive: [1] 100 % of control | [2] 100 % of control | [3] 100 % of control and 101 % of control

CN(C)c1ccc(C2N(C)CCN2C)cc1
inactive: [3] 93 % of control | [4] 99 % of control | [5] 103 % of control

C/C=C(\C)C(=O)OCC1(C)C(OC(=O)/C(C)=C/C)CCC2(C)C3C(=O)C=C(C)C2C31 (centres undefined)
inactive: [6] 110 % of control | [7] 94 % of control | [8] 97 % of control

CNC(=S)N/N=C(\C)C(C)(C)C
inactive: dose: 25.0 mg/kg/injection, schedule: Q04DX003 (ip), vehicle: saline 101 % of control | dose: 50.0 mg/kg/injection, schedule: Q04DX003 (ip), vehicle: saline 101 % of control | dose: 100.0 mg/kg/injection, schedule: Q04DX003 (ip), vehicle: saline 99 % of control and 104 % of control

Cc1nn(C(=O)c2ccccn2)c(-c2ccccc2)c1N=Nc1ccc(S(=O)(=O)Nc2ncccn2)cc1
inactive: [3] 102 % of control | [4] 100 % of control

CCCCCCCCCCC(C)c1ccc(S(=O)(=O)O)cc1 (centres undefined)
inactive: dose: 50.0 mg/kg/injection, schedule: Q01DX001 (ip), vehicle: saline 100 % of control | dose: 100.0 mg/kg/injection, schedule: Q01DX001 (ip), vehicle: saline 90 % of control | dose: 200.0 mg/kg/injection, schedule: Q01DX001 (ip), vehicle: saline 95 % of control

CCN(CC)CCOC(=O)Cc1ccc2c(=O)cc(-c3ccc(C)cc3)oc2c1
inactive: [9] 109 % of control | [10] 108 % of control | [11] 103 % of control and 114 % of control | [12] 121 % of control

CCOc1ccc2nc3cc(N=Nc4ccc(N(C)C)cc4)ccc3c(N)c2c1
inactive: [13] 110 % of control | [14] 110 % of control

c1ccc2c(c1)-c1cc3ccc4ccccc4c3nc1C1OC21 (centres undefined)
inactive: [6] 105 % of control | [7] 99 % of control | [8] 100 % of control

O=C(CCC(=O)Nc1ccccc1[N+](=O)[O-])CC(=O)c1ccc(Br)cc1
inactive: [3] 105 % of control | [4] 106 % of control | [5] 106 % of control

O=[N+]([O-])c1cccc2c(Nc3ccc(S(=O)(=O)Nc4nccs4)cc3)c3ccccc3nc12
inactive: [1] 95 % of control | [2] 100 % of control | [3] 102 % of control and 97 % of control

CC(C#N)(Cc1ccccc1)Nc1ccccc1 (centres undefined)
inactive: [13] 95 % of control | [14] 90 % of control | [15] 95 % of control

CC(C)(C)c1ccc(C(=O)Nc2ccc(S(N)(=O)=O)cc2)cc1
inactive: dose: 50.0 mg/kg/injection, schedule: Q01DX009 (ip), vehicle: Klucel (hydroxypropylcellulose) (HPC) 100 % of control | dose: 100.0 mg/kg/injection, schedule: Q01DX009 (ip), vehicle: Klucel (hydroxypropylcellulose) (HPC) 100 % of control | dose: 200.0 mg/kg/injection, schedule: Q01DX009 (ip), vehicle: Klucel (hydroxypropylcellulose) (HPC) 101 % of control

c1ccc(C(=C2C(=C(c3ccccc3)c3ccccc3)c3nc4ccccc4nc32)c2ccccc2)cc1
inactive: dose: 7.5 mg/kg/injection, schedule: Q01DX005 (ip), vehicle: saline with Tween-80 90 % of control | [1] 88 % of control | [3] 86 % of control | [4] 87 % of control | [5] 90 % of control

NC(=S)c1ccc(N=Cc2c(O)ccc3ccccc23)cc1
inactive: dose: 50.0 mg/kg/injection, schedule: Q01DX001 (ip), vehicle: Klucel (hydroxypropylcellulose) (HPC) 100 % of control | dose: 100.0 mg/kg/injection, schedule: Q01DX001 (ip), vehicle: Klucel (hydroxypropylcellulose) (HPC) 94 % of control | dose: 200.0 mg/kg/injection, schedule: Q01DX001 (ip), vehicle: Klucel (hydroxypropylcellulose) (HPC) 97 % of control

O=C1c2ccccc2C(=O)c2c(-c3ccccc3)ccc(-c3ccccc3)c21
inactive: dose: 50.0 mg/kg/injection, schedule: Q01DX005 (ip), vehicle: saline with Tween-80 93 % of control | dose: 100.0 mg/kg/injection, schedule: Q01DX005 (ip), vehicle: saline with Tween-80 99 % of control | dose: 200.0 mg/kg/injection, schedule: Q01DX005 (ip), vehicle: saline with Tween-80 87 % of control

Cc1c2ccncc2c(O)c2c3ccccc3n(C)c12
inactive: [9] 108 % of control | [10] 110 % of control | [11] 108 % of control

COc1cc(OC)c2c(c1)Oc1cc(OC)cc(OC)c1C2
inactive: [11] 97 % of control | [12] 96 % of control | [16] 95 % of control

C(#CC12CC3CC(CC(C3)C1)C2)C12CC3CC(CC(C3)C1)C2
inactive: [11] 98 % of control | [12] 92 % of control | [16] 91 % of control

CCOc1cccc(/C=N/n2c(C)nc3ccccc3c2=O)c1O
inactive: [13] 101 % of control | [14] 102 % of control | [15] 96 % of control

NC(Cc1ccccc1)=S=O
inactive: dose: 100.0 mg/kg/injection, schedule: Q04DX002 (ip), vehicle: Klucel (hydroxypropylcellulose) (HPC) 97 % of control | dose: 200.0 mg/kg/injection, schedule: Q04DX002 (ip), vehicle: Klucel (hydroxypropylcellulose) (HPC) 95 % of control

CC1CCC2C(C)C(=O)OC3OC4(C)CCC1C32OO4 (centres undefined)
inactive: dose: 2.5 mg/kg/injection, schedule: Q01DX005 (ip), vehicle: saline + alcohol 105 % of control | dose: 5.0 mg/kg/injection, schedule: Q01DX005 (ip), vehicle: saline + alcohol 108 % of control | dose: 10.0 mg/kg/injection, schedule: Q01DX005 (ip), vehicle: saline + alcohol 108 % of control | dose: 20.0 mg/kg/injection, schedule: Q01DX005 (ip), vehicle: saline + alcohol 105 % of control

N#Cc1sc(=S)n(-c2ccccc2)c1N
inactive: dose: 12.5 mg/kg/injection, schedule: Q01DX009 (ip), vehicle: saline 98 % of control | dose: 25.0 mg/kg/injection, schedule: Q01DX009 (ip), vehicle: saline 107 % of control | dose: 50.0 mg/kg/injection, schedule: Q01DX009 (ip), vehicle: saline 103 % of control and 104 % of control

CC1(C)OC2OC(C3CSC(=S=O)S3)C(O)C2O1 (centres undefined)
inactive: dose: 12.5 mg/kg/injection, schedule: Q01DX005 (ip), vehicle: Klucel + Tween-80 95 % of control | dose: 25.0 mg/kg/injection, schedule: Q01DX005 (ip), vehicle: Klucel + Tween-80 100 % of control | dose: 50.0 mg/kg/injection, schedule: Q01DX005 (ip), vehicle: Klucel + Tween-80 103 % of control

CCOC(=O)C1C(C(=O)c2ccc(Br)cc2)C12C(=O)N(C)c1ccccc12 (centres undefined)
inactive: dose: 12.5 mg/kg/injection, schedule: Q04DX002 (ip), vehicle: saline with Tween-80 99 % of control | [6] 92 % of control | [7] 93 % of control
